Assay results from ChEMBL document CHEMBL3044600 (Biochem Syst Ecol, 2008).
≈ marks a conversion by molar mass, not a printed value. Calls of active or inactive are those of the source. No cut-off for these calls is given here.

Key:
[1] = Toxicity against Spodoptera frugiperda (fall armyworm) Sf9 cells by MTT assay; assay type: cell-based
Spodoptera littoralis [2] = experiment: Antifeedant activity against Spodoptera littoralis L6 larvae assessed as biomass gain orally dosed with 40 ug after 72 hr relative to untreated control; assay type: functional
Spodoptera littoralis [3] = experiment: Antifeedant activity against Spodoptera littoralis L6 larvae assessed as food consumption level orally dosed with 40 ug after 72 hr relative to untreated control; assay type: functional
[4] = test system: Leptinotarsa decemlineata; experiment: Antifeedant activity against Leptinotarsa decemlineata adults fed on compound treated Capsicum annuum leaves assessed as inhibition of feeding; assay type: functional, organism-based
Spodoptera littoralis [5] = experiment: Antifeedant activity against Spodoptera littoralis sixth-instar larvae fed on compound treated Solanum tuberosum leaves assessed as inhibition of feeding; assay type: functional, organism-based
Lactuca sativa [6] = experiment: Phytotoxicity against Lactuca sativa var. Carrascoy (lettuce) assessed as inhibition of radicle length at 50 ug/cm2 after 24 to 144 hr; assay type: functional
[7] = Toxicity against Cricetulus griseus CHO (Chinese hamster ovary) cell by MTT assay; assay type: cell-based; details: CHO cells
Rhopalosiphum padi = experiment: Antifeedant activity against Rhopalosiphum padi adults fed on compound treated Hordeum vulgare annuum leaves assessed as feeding level at 50 ug/cm2 (reference value: 47 to 64%); assay type: functional
Myzus persicae = experiment: Antifeedant activity against Myzus persicae (green peach aphid) adults fed on compound treated […] annuum leaves assessed as feeding level at 50 ug/cm2 (reference value: 43 to 70%); assay type: functional
Lactuca sativa [8] = experiment: Phytotoxicity against Lactuca sativa var. Carrascoy (lettuce) assessed as inhibition of seed germination at 50 ug/cm2 up to 144 hr; assay type: functional, organism-based
Lactuca sativa [9] = experiment: Phytotoxicity against Lactuca sativa var. Carrascoy (lettuce) assessed as inhibition of seed germination at 50 ug/cm2 after 96 hr; assay type: functional, organism-based
Lactuca sativa [10] = experiment: Phytotoxicity against Lactuca sativa var. Carrascoy (lettuce) assessed as inhibition of seed germination at 50 ug/cm2 after 72 hr; assay type: functional, organism-based
Lactuca sativa [11] = experiment: Phytotoxicity against Lactuca sativa var. Carrascoy (lettuce) assessed as inhibition of seed germination at 50 ug/cm2 after 48 hr; assay type: functional, organism-based
Lactuca sativa [12] = experiment: Phytotoxicity against Lactuca sativa var. Carrascoy (lettuce) assessed as inhibition of seed germination at 50 ug/cm2 after 24 hr; assay type: functional, organism-based

| Structure (SMILES) | EC50 [1] | Activity (Spodoptera littoralis [2]) | Activity (Spodoptera littoralis [3]) | EC50 [4] | EC50 (Spodoptera littoralis [5]) | inhibition at 50 µg/cm2 (Lactuca sativa [6]) | EC50 [7] | Activity (Rhopalosiphum padi) | Activity (Myzus persicae) | inhibition (Lactuca sativa [8]) | inhibition (Lactuca sativa [9]) | inhibition (Lactuca sativa [10]) | inhibition (Lactuca sativa [11]) | inhibition (Lactuca sativa [12]) |
| --- | --- | --- | --- | --- | --- | --- | --- | --- | --- | --- | --- | --- | --- | --- |
| C=C1C(=O)O[C@@H]2CCN3CC=C(COC(=O)[C@](C)(O)[C@H](C)[C@H]1C)[C@H]23 | > 100 µg/mL | 90% | 98% | > 50 microg/cm2 | > 50 microg/cm2 | < 50% | 13.2 µg/mL (≈ 39.4 µM) | – | – | – | – | – | – | – |
| C[C@H]1C(=O)O[C@@H]2CCN3CC=C(COC(=O)[C@](C)(O)[C@]1(C)O)[C@H]23 [MONOCROTALINE] | > 100 µg/mL | 47% | 98% | > 50 microg/cm2 | > 50 microg/cm2 | < 50% | > 100 µg/mL | 37% | 49% | Active | Active | Active | Active | Active |
| C/C=C1\C[C@@H](C)[C@@](C)(O)C(=O)OCC2=CCN3CC[C@@H](OC1=O)[C@@H]23 [INTEGERRIMINE] | > 100 µg/mL | 89% | 88% | 3.4 microg/cm2 | > 100 microg/cm2 | < 50% | > 100 µg/mL | 43% | 57% | – | – | – | – | – |
| C=C1C/C(=C/C)C(=O)O[C@@H]2CCN3CC=C(COC(=O)[C@]1(C)O)[C@H]23 [SENECIPHYLLINE] | > 100 µg/mL | 87% | 82% | 1.7 microg/cm2 | 50 microg/cm2 | < 50% | > 100 µg/mL | 42% | 50% | – | – | – | – | – |
| C/C=C1/C[C@@H](C)[C@@](C)(O)C(=O)OCC2=CCN3CC[C@@H](OC1=O)[C@@H]23 [SENECIONINE] | > 100 µg/mL | 84% | 84% | 1.3 microg/cm2 | > 50 microg/cm2 | < 50% | > 100 µg/mL | 40% | 40% | – | – | – | – | – |
| C/C=C1\C[C@@H](C)[C@](O)(COC(C)=O)C(=O)OCC2=CCN3CC[C@@H](OC1=O)[C@@H]23 [ACETYLUSARAMINE] | > 100 µg/mL | 60% | 106% | – | – | < 50% | > 100 µg/mL | – | 40% | – | – | – | – | Active |
| C/C=C1\C[C@@H](C)[C@](O)(CO)C(=O)OCC2=CCN3CC[C@@H](OC1=O)[C@@H]23 (stereo in doubt; 7) [RETRORSINE] | – | 90% | 88% | > 50 microg/cm2 | > 50 microg/cm2 | – | – | 46% | 44% | – | – | – | – | – |
| C/C=C1\C[C@@H](C)[C@](O)(CO)C(=O)OCC2=CCN3CC[C@@H](OC1=O)[C@@H]23 (stereo in doubt; 8) | – | – | – | – | – | – | – | – | – | – | – | – | – | Active |
| C/C=C(/C)C(=O)O[C@@H]1CC[N+]2([O-])CC=C(COC(=O)[C@@](O)([C@H](C)O)C(C)(C)O)[C@H]12 (stereo not given in full) [ECHIMIDINE N-OXIDE] | – | 102% | 113% | > 50 microg/cm2 | > 50 microg/cm2 | – | – | 43% | 40% | – | – | – | – | – |
| C/C=C(/C)C(=O)O[C@@H]1CCN2CC=C(COC(=O)[C@@](O)([C@H](C)O)C(C)(C)O)[C@H]12 [ECHIMIDINE] | – | 118% | 165% | 1.4 microg/cm2 | > 50 microg/cm2 | – | – | 36% | 40% | – | – | – | – | – |
| C/C=C1\C[C@@H](C)[C@](O)(CO)C(=O)OCC2=CCN3CC[C@@H](OC1=O)[C@@H]23 (stereo in doubt; 7) | – | – | – | – | – | – | – | – | – | – | – | – | – | Active |
| C/C=C1\C[C@@H](C)[C@@](C)(O)C(=O)OC/C2=C/CN(C)CC[C@@H](OC1=O)C2=O [SENKIRKINE] | – | 116% | 105% | > 50 microg/cm2 | > 50 microg/cm2 | < 50% | – | 53% | 35% | – | Active | Active | Active | Active |
| C/C=C1\C[C@@H](C)[C@](O)(CO)C(=O)OCC2=CCN3CC[C@@H](OC1=O)[C@@H]23 (stereo in doubt; 8) [RETRORSINE] | > 100 µg/mL | 102% | 92% | – | – | < 50% | > 100 µg/mL | 40% | 30% | – | – | – | – | – |
| C/C=C1/C[C@@H](C)[C@](O)(CO)C(=O)OCC2=CCN3CC[C@@H](OC1=O)[C@@H]23 (stereo in doubt; 7) [RETRORSINE] | – | – | – | – | – | – | > 100 µg/mL | – | – | – | – | – | – | – |
| C/C=C1/C[C@@H](C)[C@@](C)(OC(C)=O)C(=O)OC/C2=C/CN(C)CC[C@@H](OC1=O)C2=O [ACETYLSENKIRKINE] | – | 100% | 88% | > 50 microg/cm2 | > 50 microg/cm2 | < 50% | – | 42% | 35% | – | – | – | Active | Active |
| C/C=C1/C[C@@]2(CO)O[C@@]2(C)C(=O)OCC2=CCN3CC[C@@H](OC1=O)[C@@H]23 [ERUCIFOLINE] | – | 106% | 102% | > 50 microg/cm2 | > 50 microg/cm2 | < 50% | – | 43% | 31% | – | – | – | – | Active |
| C=C1C/C(=C\C)C(=O)O[C@@H]2CCN3CC=C(COC(=O)[C@]1(C)O)[C@H]23 [SPARTIOIDINE] | > 100 µg/mL | 90% | 97% | 4.8 microg/cm2 | 0.2 microg/cm2 | < 50% | > 100 µg/mL | 42% | 35% | – | – | – | – | – |
